# Measured values as given in US20250213555A1, “SUBSTITUTED TETRAHYDROFURAN ANALOGS AS MODULATORS OF SODIUM CHANNELS” (VERTEX PHARMACEUTICALS INCORPORATED, priority 2021, published 2025).
# Molecular target: human Nav 1.8 (Homo sapiens, UniProt Q9Y5Y9)
# Test: E-VIPR assay detecting and measuring Nav inhibition properties
# Format: cell-based
# Details: HEK cells expressing a truncated form of human Nav 1.8; compound numbers without "*" (not marked as run in the presence of human serum); read-out: measured IC50 value in the E-VIPR Assay
# How it was run: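 Nav inhibition was read by E-VIPR: cells were electrically stimulated while coumarin/oxonol FRET emissions were recorded. Cells were HEK expressing a truncated human Nav 1.8 and co-transduced with KIR2.1, and were assayed in 25% final human serum.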
# Chain of human Nav 1.8 (Q9Y5Y9 126-399 limits assumed): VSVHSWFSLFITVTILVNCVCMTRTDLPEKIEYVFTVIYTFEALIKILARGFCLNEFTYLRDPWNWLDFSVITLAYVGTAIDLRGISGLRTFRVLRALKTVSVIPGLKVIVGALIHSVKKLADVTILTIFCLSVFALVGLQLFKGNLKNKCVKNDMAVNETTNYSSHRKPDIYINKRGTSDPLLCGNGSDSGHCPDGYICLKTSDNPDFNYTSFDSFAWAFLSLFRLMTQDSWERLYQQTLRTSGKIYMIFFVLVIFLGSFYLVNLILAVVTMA
# Chain of human Nav 1.8 (Q9Y5Y9 660-890 limits assumed): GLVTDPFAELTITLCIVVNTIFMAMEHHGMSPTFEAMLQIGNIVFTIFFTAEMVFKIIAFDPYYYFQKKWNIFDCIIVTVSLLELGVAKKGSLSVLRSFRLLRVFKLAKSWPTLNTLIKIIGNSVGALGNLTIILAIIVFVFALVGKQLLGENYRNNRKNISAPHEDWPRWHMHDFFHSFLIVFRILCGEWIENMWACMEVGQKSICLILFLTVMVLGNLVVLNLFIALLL
# Chain of human Nav 1.8 (Q9Y5Y9 1148-1722 limits assumed): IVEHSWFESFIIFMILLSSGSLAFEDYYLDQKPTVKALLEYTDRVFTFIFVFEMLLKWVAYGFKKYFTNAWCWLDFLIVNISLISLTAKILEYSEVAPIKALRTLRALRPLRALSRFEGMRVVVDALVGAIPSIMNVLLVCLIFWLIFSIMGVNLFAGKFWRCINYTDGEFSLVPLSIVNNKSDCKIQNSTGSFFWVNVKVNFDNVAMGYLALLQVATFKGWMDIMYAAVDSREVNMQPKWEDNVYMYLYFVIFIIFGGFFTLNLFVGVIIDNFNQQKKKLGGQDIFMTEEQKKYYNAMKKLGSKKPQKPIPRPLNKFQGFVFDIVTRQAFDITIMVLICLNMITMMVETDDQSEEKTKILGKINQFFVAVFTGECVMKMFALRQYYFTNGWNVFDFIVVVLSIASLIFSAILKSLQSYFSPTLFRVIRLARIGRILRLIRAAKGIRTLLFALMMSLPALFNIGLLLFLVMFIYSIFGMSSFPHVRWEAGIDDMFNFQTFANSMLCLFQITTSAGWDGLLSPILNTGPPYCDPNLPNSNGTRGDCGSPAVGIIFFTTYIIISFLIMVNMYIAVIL
row,Structure (SMILES),IC50 [nM]
1,"COc1c([C@H]2[C@H](C(=O)Nc3ccnc(C(=O)N4C[C@H]5CC[C@@H](C4)N(C)C5)c3)O[C@@](C)(C(F)(F)F)[C@H]2C)ccc(F)c1F [Compound 283, (2R,3S,4S,5R)-3-(3,4-difluoro-2-methoxyphenyl)-4,5-dimethyl-N-(2-((1S,5S)-6-methyl-3,6-diazabicyclo[3.2.2]nonane-3-carbonyl)pyridin-4-yl)-5-(trifluoromethyl)tetrahydrofuran-2-carboxamide]",< 10
2,"COc1c([C@H]2[C@H](C(=O)Nc3ccnc(C(=O)N4CC5COCC(C4)N5C)c3)O[C@@](C)(C(F)(F)F)[C@H]2C)ccc(F)c1F [Compound 284, (2R,3S,4S,5R)-3-(3,4-difluoro-2-methoxyphenyl)-4,5-dimethyl-N-(2-(9-methyl-3-oxa-7,9-diazabicyclo[3.3.1]nonane-7-carbonyl)pyridin-4-yl)-5-(trifluoromethyl)tetrahydrofuran-2-carboxamide]",< 10
3,"COc1c([C@H]2[C@H](C(=O)Nc3ccnc(C(=O)N4C[C@@H](C)N(C)C[C@H]4C)c3)O[C@@](C)(C(F)(F)F)[C@H]2C)ccc(F)c1F [Compound 289, (2R,3S,4S,5R)-3-(3,4-difluoro-2-methoxyphenyl)-4,5-dimethyl-5-(trifluoromethyl)-N-(2-((2R,5R)-2,4,5-trimethylpiperazine-1-carbonyl)pyridin-4-yl)tetrahydrofuran-2-carboxamide]",10 to 100
4,"COc1c([C@H]2[C@H](C(=O)Nc3ccnc(C(=O)N[C@H]4C[C@@H](C)CN(C)C4)c3)O[C@@](C)(C(F)(F)F)[C@H]2C)ccc(F)c1F [Compound 290, 4-((2R,3S,4S,5R)-3-(3,4-difluoro-2-methoxyphenyl)-4,5-dimethyl-5-(trifluoromethyl)tetrahydrofuran-2-carboxamido)-N-((3S,5R)-1,5-dimethylpiperidin-3-yl)picolinamide]",100 to 1000
5,"CN[C@H]1CN(C(=O)c2cc(NC(=O)[C@@H]3O[C@@](C)(C(F)(F)F)[C@@H](C)[C@H]3c3ccc(F)c(F)c3OC)ccn2)C[C@H]1F [Compound 292, (2R,3S,4S,5R)-3-(3,4-difluoro-2-methoxyphenyl)-N-(2-((3R,4S)-3-fluoro-4-(methylamino)pyrrolidine-1-carbonyl)pyridin-4-yl)-4,5-dimethyl-5-(trifluoromethyl)tetrahydrofuran-2-carboxamide]",< 10
6,"COc1c([C@H]2[C@H](C(=O)Nc3ccnc(C(=O)N4C[C@@H](F)[C@@H](N(C)C)C4)c3)O[C@@](C)(C(F)(F)F)[C@H]2C)ccc(F)c1F [Compound 296, (2R,3S,4S,5R)-3-(3,4-difluoro-2-methoxyphenyl)-N-(2-((3S,4R)-3-(dimethylamino)-4-fluoropyrrolidine-1-carbonyl)pyridin-4-yl)-4,5-dimethyl-5-(trifluoromethyl)tetrahydrofuran-2-carboxamide]",< 10
7,"CN[C@H]1CN(C(=O)c2cc(NC(=O)[C@@H]3O[C@@](C)(C(F)(F)F)[C@@H](C)[C@H]3c3ccc(F)c(F)c3OC)ccn2)C[C@H]1OC [Compound 297, (2R,3S,4S,5R)-3-(3,4-difluoro-2-methoxyphenyl)-N-(2-((3R,4S)-3-methoxy-4-(methylamino)pyrrolidine-1-carbonyl)pyridin-4-yl)-4,5-dimethyl-5-(trifluoromethyl)tetrahydrofuran-2-carboxamide]",< 10

# More lines, now with the values ahead:
row,IC50 [nM],Structure (SMILES)
1,< 10,"COc1c([C@H]2[C@H](C(=O)Nc3ccnc(C(=O)N4CCO[C@H]5CN(C)C[C@H]54)c3)O[C@@](C)(C(F)(F)F)[C@H]2C)ccc(F)c1F [Compound 282, (2R,3S,4S,5R)-3-(3,4-difluoro-2-methoxyphenyl)-4,5-dimethyl-N-(2-((4aR,7aS)-6-methyloctahydropyrrolo[3,4-b][1,4]oxazine-4-carbonyl)pyridin-4-yl)-5-(trifluoromethyl)tetrahydrofuran-2-carboxamide]"
2,100 to 1000,"COc1c([C@H]2[C@H](C(=O)Nc3ccnc(C(=O)N[C@H]4CN(C)CC[C@H]4OC)c3)O[C@@](C)(C(F)(F)F)[C@H]2C)ccc(F)c1F [Compound 285, 4-((2R,3S,4S,5R)-3-(3,4-difluoro-2-methoxyphenyl)-4,5-dimethyl-5-(trifluoromethyl)tetrahydrofuran-2-carboxamido)-N-((3S,4R)-4-methoxy-1-methylpiperidin-3-yl)picolinamide]"
3,< 10,"COc1c([C@H]2[C@H](C(=O)Nc3ccnc(C(=O)N(C)[C@H]4CN(C)C[C@@H]4OC)c3)O[C@@](C)(C(F)(F)F)[C@H]2C)ccc(F)c1F [Compound 286, 4-((2R,3S,4S,5R)-3-(3,4-difluoro-2-methoxyphenyl)-4,5-dimethyl-5-(trifluoromethyl)tetrahydrofuran-2-carboxamido)-N-((3S,4S)-4-methoxy-1-methylpyrrolidin-3-yl)-N-methylpicolinamide]"
4,< 10,"COC[C@H]1CN(C(=O)c2cc(NC(=O)[C@@H]3O[C@@](C)(C(F)(F)F)[C@@H](C)[C@H]3c3ccc(F)c(F)c3OC)ccn2)CCN1C [Compound 287, (2R,3S,4S,5R)-3-(3,4-difluoro-2-methoxyphenyl)-N-(2-((R)-3-(methoxymethyl)-4-methylpiperazine-1-carbonyl)pyridin-4-yl)-4,5-dimethyl-5-(trifluoromethyl)tetrahydrofuran-2-carboxamide]"
5,< 10,"COc1c([C@H]2[C@H](C(=O)Nc3ccnc(C(=O)N4CCN(C)[C@H](C)C4)c3)O[C@@](C)(C(F)(F)F)[C@H]2C)ccc(F)c1F [Compound 288, (2R,3S,4S,5R)-3-(3,4-difluoro-2-methoxyphenyl)-N-(2-((R)-3,4-dimethylpiperazine-1-carbonyl)pyridin-4-yl)-4,5-dimethyl-5-(trifluoromethyl)tetrahydrofuran-2-carboxamide]"
6,100 to 1000,"CCO[C@H]1CN(C)C[C@@H]1NC(=O)c1cc(NC(=O)[C@@H]2O[C@@](C)(C(F)(F)F)[C@@H](C)[C@H]2c2ccc(F)c(F)c2OC)ccn1 [Compound 291, 4-((2R,3S,4S,5R)-3-(3,4-difluoro-2-methoxyphenyl)-4,5-dimethyl-5-(trifluoromethyl)tetrahydrofuran-2-carboxamido)-N-((3S,4S)-4-ethoxy-1-methylpyrrolidin-3-yl)picolinamide]"
7,< 10,"COc1c([C@H]2[C@H](C(=O)Nc3ccnc(C(=O)N4C[C@H](OC)[C@@H](N(C)C)C4)c3)O[C@@](C)(C(F)(F)F)[C@H]2C)ccc(F)c1F [Compound 293, (2R,3S,4S,5R)-3-(3,4-difluoro-2-methoxyphenyl)-N-(2-((3S,4S)-3-(dimethylamino)-4-methoxypyrrolidine-1-carbonyl)pyridin-4-yl)-4,5-dimethyl-5-(trifluoromethyl)tetrahydrofuran-2-carboxamide]"
8,< 10,"COc1c([C@H]2[C@H](C(=O)Nc3ccnc(C(=O)N4C[C@@H](OC)[C@@H](N(C)C)C4)c3)O[C@@](C)(C(F)(F)F)[C@H]2C)ccc(F)c1F [Compound 298, (2R,3S,4S,5R)-3-(3,4-difluoro-2-methoxyphenyl)-N-(2-((3S,4R)-3-(dimethylamino)-4-methoxypyrrolidine-1-carbonyl)pyridin-4-yl)-4,5-dimethyl-5-(trifluoromethyl)tetrahydrofuran-2-carboxamide]"
